Patent publication US9499599B2, “Composition and methods for stimulating gastrointestinal motility” (Ipsen Pharma S.A.S., priority 2005, dated 2016)
Non-standard residues stand in square brackets, D forms with d. Residues, ends and D or L forms follow the SMILES beside them. No end group written: not given here. Ala(4-thiazolyl) = N[C@@H](Cc1cscn1)C(=O)O; d2Nal = N[C@H](Cc1ccc2ccccc2c1)C(=O)O; dBta = N[C@H](Cc1csc2ccccc12)C(=O)O; Api = NC1(C(=O)O)CCNCC1; Inp = O=C(O)C1CCNCC1

Legend:
[1] = system: rats; assay: In vivo study on intestinal transit, charcoal meal; parameters: species or system rat; conditions: fasted anesthetized rats, charcoal meal by esophageal gavage
Protocol: In the study, groups of eight rats were fasted for approximately 24 hours with free access to water. Anesthetized test subjects were administered native ghrelin, the selected analog and atropine as a control. The test subjects were administered a 2 ml charcoal meal by esophageal gavage approximately five minutes after the initial administration of ghrelin, the selected analog or atropine. After approximately an additional 25 minutes, the test subjects were sacrificed by cervical rupture and the small intestines were removed. The distance the charcoal traveled was measured from the pylorus.

[2] = system: male Sprague Dawley rats; assay: In vivo gastric emptying, intravenous administration, phenol red meal; parameters: species or system rat; conditions: fasted anesthetized rats, administered intravenously
Protocol: Selected compounds of the invention can be and were tested to determine the effect of the compounds upon gastric emptying. […] Native ghrelin, the selected ghrelin analog and a metoclopramide control compound were administered intravenously to anesthetized test subjects. Approximately five minutes after the initial administration of native ghrelin, the selected ghrelin analog or the control compound, a 1.5 ml meal marked with phenol red (0.5 mg/ml phenol red and 1.5% methyl cellulose in whole milk) was administered to each test subject by esophageal gavage. After approximately an additional 20 minutes, the test subjects were sacrificed by cervical rupture and the stomachs removed and individually pulverized. The residual phenol red in the stomach of the test subjects was extracted and was measured spectrophometrically at a wavelength of 560 nm.

[3] = system: male Sprague Dawley rats; assay: In vivo gastric emptying, subcutaneous administration, phenol red meal; parameters: species or system rat; conditions: fasted rats, injected subcutaneously, varying doses
Protocol: The animals were injected subcutaneously with either vehicle or varying doses of native ghrelin or selected ghrelin analogs. After approximately 15 minutes, 1.5 ml of a phenol red marked nutrient meal (0.5 mg/ml phenol red & 1.5% methyl cellulose in whole milk) was administered orally to the rats. […] The residual phenol red in the stomach was extracted and measured by spectrophotometric methods at a wavelength of 560 nm. […] (see Figures)

[4] = system: male Sprague Dawley rats; assay: Effect on POI in rat (laparotomy-induced gastric ileus), gastric emptying; type: in vivo; conditions: 3 centimeter laparotomy, administered subcutaneously
[5] = system: rats; conditions: cited from earlier work
[6] = system: mice; conditions: cited from earlier work
[7] = system: rats; conditions: post-operative ileus model; cited from earlier work
[8] = system: laparectomized dogs; conditions: cited from earlier work
[9] = system: septic mice; conditions: cited from earlier work
[10] = system: Ferrets; conditions: ferrets exposed to cisplatin, intracerebroventricular administration; cited from earlier work
[11] = system: patients with diabetic gastroparesis; conditions: cited from earlier work
[12] = molecular target: T1, human recombinant GHS receptor (Homo sapiens, UniProt Q92847); assay: GHS-receptor binding assay, (125I)ghrelin displacement; conditions: 0.05 nM (125I)ghrelin, membranes of CHO-K1 cells expressing human recombinant GHS receptor, 60 min at 4° C.
T1 construct: The full length human GHS-R was subcloned into the mammalian expression vector pcDNA 3.1; expressed in transfected cells; membrane homogenates used
T1 sequence (Q92847 whole entry): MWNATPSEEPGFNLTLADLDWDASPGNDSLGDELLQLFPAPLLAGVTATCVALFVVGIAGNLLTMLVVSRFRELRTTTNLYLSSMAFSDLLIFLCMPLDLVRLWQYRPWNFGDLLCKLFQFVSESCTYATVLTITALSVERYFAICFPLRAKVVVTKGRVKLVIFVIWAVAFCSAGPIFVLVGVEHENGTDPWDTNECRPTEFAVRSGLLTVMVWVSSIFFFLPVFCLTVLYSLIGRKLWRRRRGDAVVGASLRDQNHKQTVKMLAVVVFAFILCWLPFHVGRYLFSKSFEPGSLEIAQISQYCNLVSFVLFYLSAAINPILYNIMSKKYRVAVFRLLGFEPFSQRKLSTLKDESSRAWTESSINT
Protocol: Membranes for radioligand binding studies can be and were prepared by homogenization of the foregoing CHO-K1 cells expressing the human recombinant GHS receptor. The cells were homogenized in 20 ml of ice-cold 50 mM Tris-HCl using a Brinkman Polytron® (Westbury, N.Y.; setting 6, 15 sec). The homogenates were washed twice by centrifugation (39,000 g/10 min) and the final pellets were resuspended in 50 mM Tris-HCl containing 2.5 mM MgCl2 and 0.1% bovine serum albumin (BSA).

## H-Gly-Ser-Ser-Phe-Leu-Ser-Pro-Glu-His-Gln-Arg-Val-Gln-Gln-Arg-Lys-Glu-Ser-Lys-Lys-Pro-Pro-Ala-Lys-Leu-Gln-Pro-Arg-NH2 (H-GSSFLSPEHQRVQQRKESKKPPAKLQPR-NH2) [ghrelin, orexigenic hormone, native ligand for the GHS receptor]
[1]
  effect on intestinal transit (distance the charcoal traveled from the pylorus): accelerated gastric intestinal transit
[2]
  effect on gastric emptying (residual phenol red in stomach): accelerated gastric emptying
[3]
  effect on gastric emptying (residual phenol red in stomach): accelerated gastric emptying
[4]
  effect on gastric emptying under post-operative ileus conditions: significantly accelerated gastric emptying
[5]
  effect on gastric emptying: accelerate gastric emptying
[6]
  effect on gastric emptying: accelerate gastric emptying
[7]
  effect on delay of gastric emptying: reverse the delay of gastric emptying
[8]
  effect on POI: improve POI
[9]
  effect on gastric emptying: accelerated gastric emptying
  effect on transit in the small intestine: little effect upon increasing transit in the small intestine
[10]
  occurrences of retching and vomiting: significantly reduced occurrences of retching and vomiting
[11]
  effect on gastric emptying: increase gastric emptying

## NCCCC[C@H](NC(=O)[C@H](Cc1cscn1)NC(=O)[C@@H](Cc1c[nH]c2ccccc12)NC(=O)[C@@H](Cc1ccc2ccccc2c1)NC(=O)C1CCNCC1)C(N)=O [Example #37, H-Inp-D-2-Nal-D-Trp-Taz-Lys-NH2] (H-[Inp][d2Nal][dW][Ala(4-thiazolyl)]K-NH2)
[12]
  Ki: 0.8 nM

## NCCCC[C@H](NC(=O)[C@H](Cc1ccccc1)NC(=O)[C@@H](Cc1c[nH]c2ccccc12)NC(=O)[C@@H](Cc1ccc2ccccc2c1)NC(=O)C1CCNCC1)C(N)=O [Example #2, Inp-D-2-Nal-D-Trp-Phe-Lys-NH2] (HELM PEPTIDE1{[O=C(C1CCNCC1)[*:2]].[O=C([C@@H](Cc1ccc2ccccc2c1)N[*:1])[*:2]].[dW].F.K.[am]}$$$$V2.0)
[12]
  Ki: 0.3 nM

## NC(=O)C1(NC(=O)[C@H](Cc2ccccc2)NC(=O)[C@@H](Cc2c[nH]c3ccccc23)NC(=O)[C@@H](Cc2csc3ccccc23)NC(=O)C2CCNCC2)CCNCC1 [Example #19, H-Inp-D-Bal-D-Trp-Phe-Apc-NH2] (H-[Inp][dBta][dW]F[Api]-NH2)
[1]
  effect on intestinal transit (distance the charcoal traveled from the pylorus): accelerated gastric intestinal transit
[2]
  effect on gastric emptying (residual phenol red in stomach): accelerated gastric emptying
[3]
  effect on gastric emptying (residual phenol red in stomach): accelerated gastric emptying
[4]
  effect on gastric emptying under post-operative ileus conditions: significantly accelerated gastric emptying

## His-D-Trp-Ala-Trp-D-Phe-Lys-amide (H[dW]AW[dF]K-NH2) [GHRP-6]
[5]
  effect on gastric emptying: accelerate gastric emptying
[6]
  effect on gastric emptying: accelerate gastric emptying
[9]
  effect on gastric emptying: accelerated gastric emptying
  effect on transit in the small intestine: little effect upon increasing transit in the small intestine
